Patent publication US6894153B1, “Gene Any-RF; dormancy regulatory substance, process for producing the same and cell regulator for vital cells” (priority 1999, dated 2005)
No end group written: not given here.

Experiments:
[1] = tested on: pre-larvae of Antheraea yamamai; assay: Bioassay of dormancy-control in pre-larvae destined to awake by KK-42 treatment
Description: In general, the activity of a repressive factor is determined using a non-dormancy type insect and evaluated on the basis of the rate of dormancy induction, but there is not any non-dormancy type strain in Antheraea yamamai.
Subsequent to the completion of the treatment for awakening from the dormancy, 0.05 μl each of distilled water was injected to each larva after 24 hours from the completion of the treatment and this group of larvae was used as the control group. In the case of the isolated and purified product, a solution whose concentration was adjusted in such a manner that 100 pmol of the product was present in 0.05 μl of distilled water was injected into each larva, while in the case of the synthetic peptides in the amidated and free acid forms, 100 pmol/0.05 μl each of the peptide was injected into each larva. In any case, the larvae were inspected for the number of larvae falling into dormancy, the number of larvae awakening from the dormancy, the number of died larvae and the average days required till awakening from the dormancy (diapause termination) to thus evaluate the rate of larvae awakening from the dormancy.
After 24 hours from the treatment with the KK-42 solution, 0.05 μl of distilled water was injected to the pre-larvae, followed by a second distilled water injection thereto after additional 24 hours and a third distilled water injection after additional 24 hours from the second distilled water injection (in the following Table 2, they are referred to as control 1, 2 and 3 respectively). And the rate of pre-larvae awaken from the dormancy (the rate of diapause termination) was evaluated in each case.

[2] = tested on: cultured cells of lymphoma and leukemia; conditions: Moore et al. 1994; cited from earlier work
[3] = Acute toxicity test in rats; format: in vivo
Description: (§1) The foregoing peptide of the present invention as the physiologically active substance is almost free of an) side effect in the living body as compared with the conventional Cecropin and Pierisin and any acute toxicity is not observed at all. More specifically, the peptide of the present invention was administered to rats and mice through two routes, i.e., oral and percutaneous routes, in an amount of 0.5 g per unit body weight (1 kg) and the acute toxicity test was carried out according to the predetermined method. […] Moreover, the testis of the genital organ was removed from each animal after the acute toxicity test and the tissue was examined with a microscope. […] In addition, the peptide of the present invention is a low molecular weight penta-peptide and therefore, it never causes any antigen-antibody reaction and it is safe.

[4] = tested on: rat hepatoma cells (dRLh84); assay: Morphological observation of cultured cancer cells (inverted microscope); format: cell-based; conditions: 200 μg/ml
Description: (§2) Rat hepatoma cells (dRLh 84) were used and these cells were cultivated in Dulbecco's modified Eagle medium (DMEM) containing 4 mM glutamine, 50U/ml penicillin, 100 μg/ml kanamycin, and supplemented with 10% neonatal calf serum. In respect of the foregoing cells, the cultivation thereof was carried out at 37° C. in a wet atmosphere including 5% CO2.
The inhibitory effect of the penta-peptide on the growth of cancer cells was examined as follows. As the cancer cells, there were used rat hepatoma cells (dRLh84), which were relatively easily available and whose cultivation was easy. To make clear the relation between the physiologically active substance (RF—NH2) of the present invention and the growth of cancer cells, cancer cells were cultured in a cell culture medium supplemented with PBS(−) for a control group and culture mediums supplemented with 200 μg/ml each of the peptide whose C-terminal was amidated, i.e., RF—NH2 and the peptide whose C-terminal was in a free acid form, i.e., RF—COOH, respectively, for the experimental groups. The number of cultured cells was adjusted to 3 to 5×10^5, and the cells were cultured with or without a predetermined amount of each peptide in the presence of 5% CO2 at 37° C. […]

[5] = Acute toxicity test in mice; format: in vivo
Description: as §1

[6] = tested on: rat hepatoma cells (dRLh84); assay: Assay for cancer cell growth-control (viable cell count, trypan blue); format: cell-based
Description: as §2
The used culture medium was removed from a (100 mm dish (generally schale) in which cells were cultured and the dish was once washed with PBS(−) (prepared by removing Ca and Mg ions from phosphate buffered saline). To the dish, there was gently added 1.5 ml of a 10% trypsin solution so that the solution uniformly spreaded throughout the dish, 1 ml of the solution was removed, the dish was maintained at 37° C. for 5 minutes and it was confirmed with a microscope that the cells were pealed off from the bottom of the dish. Then 9.5 ml of a fresh DEME medium was added to the dish and the cells were separated into individual cells by pipetting to thus suspend the cells in the medium. Dishes of Φ100 mm were inoculated with this suspension in a dilution of 1/20 (total amount: 10 ml), followed by introduction thereof into an incubator and cultivation for 24 hours. Each peptide was added to these dishes in a predetermined concentration, followed by cultivation at 37° C., determination of the number of cells using a blood counting plate after 24 and 48 hours from the initiation of the cultivation to thus inspect the peptides for their cell growth-control functions.
Rat hepatoma cells (dRLh84, 3×10^5 cells) were cultured in a culture medium, to which the peptide (DILRG—NH2, SEQ ID NO:5, the peptide of SEQ ID NO:1 having the C-terminal amidated or DILRG—COOH, SEQ ID NO:1) was added in a predetermined amount (0, 50, 100, 150, 200 μg/ml) in the presence of 5% CO2 at 37° C. for 40 hours. Thereafter, the culture medium was treated with trypan blue to determine the […] cell count.
Thus, the cultivation time was extended to investigate the relation between the proliferation ability of cancer cells and the cultivation time using the physiologically active substance of the present invention. The method for cultivation used herein was identical to that used in Example 7. The cultivation time was extended up to 72 hours. The cultivation of 3×10^5 cells was carried out using a culture medium supplemented with PBS(−) for a control group and a cell culture medium for an experimental group, to which 200 μg/ml of the peptide (DILRG—NH2) was added, in the presence of 5% CO2 at 37° C. for 24, 48 and 72 hours, respectively. Thereafter, the culture medium was treated with trypan blue to determine the viable cell count.
The fact that the physiologically active substance derived from insects can results obtained in Examples 6, 7 and 8. […] Thus, we investigated which part of the 5 amino acid sequence of this substance is indispensable to the cell growth-control activity from the structural standpoint. Cells were cultured by the same method used in Example 6. More specifically, in the control group, there were used a culture medium supplemented with PBS(−) and FMRF—NH2(SEQ ID NO:4), which is widely distributed from echinoderms to insects and mammals, which comprises 4 amino acid residues and whose C-terminal is amidated. In an experimental group, there was used a culture medium supplemented with the complete synthetic peptide (DILRG—NH2) or an incomplete synthetic peptide (ILRG—NH2) free of the aspartic acid residue at the N-terminal in a concentration of 200 μg/2.6×10^5 cells. The control group and the experimental group were cultured at 37° C. for 48 hours in the presence of 5% CO2. Thereafter the cells were stained with trypan blue to thus determine the number of cells.

[7] = tested on: rat hepatoma cells (dRLh84); assay: Flow cytometric analysis of cell cycle (propidium iodide DNA content); format: cell-based; conditions: 200 μg/ml; 48 hours
Description: The cells treated with each peptide was fixed at 4° C. for 4 hours using 70% ethanol. The fixed cells were washed with PBS(−), then treated with 2 mg/ml of RNaseA at 37° C. for 30 minutes to thus […] the RNA. Thereafter, the cells were stained with propidium iodide (25 μg/ml) for not less than 30 minutes and filtered through a nylon mesh. Then the intensity of fluorescence (DNA content per cell) observed for 10,000 cells was analyzed using a flow cytometer ([…] available from Becton Dickinson Company).
The fact that the physiologically active substance of the present invention can inhibit the cell growth ability of the rat hepatoma is substantiated experimentally by the results obtained in Examples 6, 7 and 8 (FIGS. 9, 10 and 11). Thus, we tried to elucidate the mechanism of the inhibition. The peptide (DILRG—NH2)(200 μg/ml) was added to the culture medium under the same conditions used in Example 6 and the cells were cultured, followed by fixing the cells after cultivation of 48 hours with ethanol and then staining the cells with propidium iodide. In addition, the same procedures used above were repeated using a culture medium supplemented with PBS(−) as a control group. The DNA content in the cells was analyzed using a flow cytometer. The flow cytometric analysis employed for this purpose comprises the step of staining cells with propidium iodide, which is a fluorescent dye capable of being linked with DNA to thus determine the DNA content of the cell and this method permits the analysis of the cell cycle control. More specifically, the biological cell multiplies by cell division while undergoing the following cycle change: G0/G 1. S (DNA replication stage) and M stage (cell division stage) in this order. FIGS. 12(A) and 12(B) are graphs each showing the results obtained by determining the DNA content in each cancer cell using a flow cytometer and then analyzing the results. It can be predicted from the data shown in FIGS. 12(A) and 12(B), i.e., the cell cycle change observed for the control group (PBS(−) was used, FIG. 12(A)) and that observed for the experimental group (RF—NH2 was used, FIG. 12(B)), that the pattern of the rat hepatoma cell cycle is differently affected by the presence and absence of the peptide.
Then the patterns observed in FIGS. 12(A) and 12(B) were examined in detail. In the G0/G1 stage, the DNA content is 2n, while that observed in the M stage is two times that observed for the G0/G1 stage or 4n. In the analysis of data shown in FIGS. 12(A) and 12(B), the DNA contents of 2n and 4n correspond to peaks or wide peaks at 360 and 700, respectively. If it is assumed that the analyzed pattern of the cell cycle change shown in FIGS. 12(A) and 12(B) comprises a linear coupling of peaks specific to G0/G1, S, M stages, the rate of cells in each stage can be obtained by dividing the pattern into these individual components.

[8] = 100 pmol/0.05 μl injected once 24 hours after KK-42 treatment, N 10 × 3
[9] = after the acute toxicity test, 0.5 g/kg oral and percutaneous
[10] = oral and percutaneous routes, 0.5 g per unit body weight (1 kg)
[11] = 100 pmol/0.05 μl injected once 24 hours after KK-42 treatment
[12] = Table 2, 100 pmol/0.05 μl × 1, N 10 × 3
[13] = Table 2, 100 pmol/0.05 μl × 2 (24 hours apart), N 10 × 3
[14] = Table 2, 100 pmol/0.05 μl × 3 (24 hours apart), N 10 × 3
[15] = Example 10, 200 μg/2.6×10^5 cells, 48 hours

1-benzyl-5-[(E)-2,6-dimethyl-1,5-heptadienyl] [KK-42, reference compound]
larvae awakened from the dormancy ([1]; 0.1 μg/0.5 μl solution in acetone applied on the ventral portion of each larva): 100%

Cecropin
anti-tumor activity to cultured cells [2]: anti-tumor activity

DILRG-OH [Asp-Ile-Leu-Arg-Gly-COOH]
Number of Insects Died [1, 8]: 0

H-DILRG-NH2 [Asp-Ile-Leu-Arg-Gly-NH2]
testis tissue examined with a microscope [3, 9]: any abnormality was not observed at all | acute toxicity such as convulsion and vomiting [3, 10]: not observed any acute toxicity | No. of Days (Time (day) required till Awakening) [1, 11]: 6.72 days | Rate (the rate of larvae awakening from dormancy) [1, 11]: 53.3% | Number of Insects Awa (Awakening from Dormancy) [1, 8]: 16 | Number of Insects Died [1, 8]: 0 | Number of Insects Dor (Dormancy) [1, 8]: 14 | Rate of Diapause Termination ([1]; Table 2, 100 pmol/0.05 μl × 1): 53.3% | Number of Insects Awa (Diapause Termination) [1, 12]: 16 | Number of Insects Died [1, 12]: 0 | Number of Insects Dor (Dormancy) [1, 12]: 14 | Rate of Diapause Termination ([1]; Table 2, 100 pmol/0.05 μl × 2 (24 hours apart)): 30% | Number of Insects Awa (Diapause Termination) [1, 13]: 9 | Number of Insects Died [1, 13]: 0 | Number of Insects Dor (Dormancy) [1, 13]: 21 | Rate of Diapause Termination ([1]; Table 2, 100 pmol/0.05 μl × 3 (24 hours apart)): 13.3% | Number of Insects Awa (Diapause Termination) [1, 14]: 4 | Number of Insects Died [1, 14]: 0 | Number of Insects Dor (Dormancy) [1, 14]: 26 | number of cancer cells compared with the initiation of the cultivation (0 hour) ([4]; after 24 and 48 hours): not increased at all | shape of the cells ([4]; after 48 hours): changed from a spindle-like shape to a circular shape | testis tissue examined with a microscope [5, 9]: any abnormality was not observed at all | acute toxicity such as convulsion and vomiting [5, 10]: not observed any acute toxicity | viable cell count ([6]; Example 7, 50 μg/ml, 3×10^5 cells cultured 40 hours): markedly reduced | viable cell count ([6]; Example 7, 200 μg/ml, 3×10^5 cells cultured 40 hours): 7.7×10^5 cells | viable cell count relative to that observed for the control group ([6]; Example 7, 200 μg/ml, 40 hours): a half | viable cell count ([6]; Example 8, 200 μg/ml, from 3×10^5 cells within 72 hours): 8×10^5 cells | factor of increase of the number of cells ([6]; Example 8, 200 μg/ml, within 72 hours): 2.7 | viable cell count [6, 15]: ~7.7×10^5 cells | cancer cell growth after transfer to fresh culture medium without peptide ([6]; after cultivation for 48 hours with 200 μg/ml peptide): rapidly began to proliferate like the control group | G0/G1 stage rate higher than that observed for the control group [7]: not less than 30% | Rate of cells in G0/G1 Stage [7]: 66.07% | Rate of cells in G2/M Stage [7]: 12.10% | Rate of cells in S Stage [7]: 21.84% | S stage rate lower than that observed for the control group [7]: not less than 40%

Ile-Leu-Arg-Gly (ILRG-NH2) [ILRG—NH2]
growth-inhibitory effect [6, 15]: sufficient growth-inhibitory effect | viable cell count [6, 15]: 8.4×10^5 cells
